Laboratory results reported in article PMC9649909, “Wnt-pathway inhibitors with selective activity against triple-negative breast cancer: From thienopyrimidine to quinazoline inhibitors” (Frontiers in Pharmacology, 2022).
Like-named read-outs stand apart in the source and are kept apart here.

How the values were obtained:
HCC1806 TNBC cell line = assay: MTT survival assay HCC1806; format: cell-based; conditions: Table S2; for IC50: read-out: MTT HCC1806 IC50
Procedure: (§1) Indicated TNBC cell lines were detached and resuspended at 120,000 cells/ml and added into each well of a transparent 384-well plate in the final volume of 20 µl/well. The cells were maintained in DMEM containing 10% FBS at 37°C, 5% CO2 overnight. Next day, the medium in each well was replaced by 40 μl of the fresh one containing the indicated concentrations of compounds. In case of drug combination experiments, each compound dilution was delivered in corresponding well in 20 μl of medium. […] After incubation for 3–4 days, depending on the cell line, the medium in each well was replaced by 25 μl of 0.5 mg/ml Thiazolyl blue solution in 1xPBS following by incubation for 3 h at 37°C. Then the solution was removed and 25 μl DMSO was added into each well. Absorbance at 510 nm was measured in a Tecan Infinite M200 PRO plate reader.

[1] = test system: MDA-MB-231 TNBC cell line; assay: MTT survival assay MDA-MB-231; format: cell-based
Procedure: as §1

BT-20 TNBC cell line = assay: MTT survival assay BT-20; format: cell-based; conditions: Table S2; for IC50: read-out: MTT BT-20 IC50
Procedure: as §1

[2] = test system: non-cancerous breast epithelial cell line MCF10a; assay: MTT survival assay MCF10a; format: cell-based; conditions: for selectivity over the control cells (difference in IC50, MCF10a vs HCC1395): MTT IC50 ratio MCF10a / HCC1395
Procedure: as §1

[3] = test system: MDA-MB-468 TNBC cell line; assay: MTT survival assay MDA-MB-468; format: cell-based; conditions: Table S2
Procedure: as §1

[4] = test system: β-catenin-dependent Wnt-pathway; assay: TopFlash luciferase reporter assay, CHIR99021-stimulated, HCC1395; format: cell-based; conditions: for Emax: read-out: HCC1395 TopFlash Efficacy; for fold improvement in the activity compared to 4a: TopFlash IC50 vs 4a
From the text: Both stimulations abolish formation of the destruction complex, a multiprotein complex consisting of Axin, adenomatous polyposis coli (APC), glycogen synthase kinase three beta (GSK3β), and casein kinase one alpha (CK1α). Upon inactivation of the complex, β-catenin accumulates in the cytoplasm and translocates into the nucleus where it interacts with transcription factors. These downstream events are quantified by a Luciferase transcription-based readout assay (TopFlash assay).

HCC1395 TNBC cell line = assay: MTT survival assay HCC1395; format: cell-based; conditions: Table S2; for IC50: read-out: MTT HCC-1395 IC50
Procedure: as §1

in vitro = conditions: human
Procedure: (§2) The simplicity of the scaffold combined with synthetic accessibility allows building a library of compounds and performing structure activity relationship (SAR) studies of the three main parts of the molecule: the top part, the linker and the core (Figure 2).
(§3) The synthesized compounds were used to explore SAR of three defined areas of investigation (Figure 2). All compounds were tested in the HCC1395 TNBC cell line using the GSK3β inhibitor to induce β-catenin signaling since 4a acted downstream of GSK3β (Figure 2). Both inhibition of β-catenin signaling measured by the TopFlash reporter and cytotoxicity measured by the Renilla reporter were assessed.
(§4) The Wnt3a or CHIR99021-stimulated luciferase activity in HCC1395 TNBC cell line stably transfected with the TopFlash reporter was analyzed essentially as described for the BT-20 TNBC cell line ([Shaw et al., 2019b]; [Koval et al., 2021]). Reporter cells were seeded at 10,000 cells/well in a white opaque 384-well plate in the final volume of 20 μl of DMEM medium supplemented with 10% FCS. The cells were maintained incubated at 37°C, 5% CO2 overnight for attachment. Subsequently, they were transfected by a plasmid encoding constitutively expressed Renilla luciferase under the CMV promoter overall as described in the manufacturer’s protocol using 12 μg/ml of DNA and 40 μl/ml XtremeGENE nine reagent. The next day, the medium in each well was replaced with a 10 μl of fresh medium containing compound of interest, and, after 1 h of preincubation with the compounds, additional 10 μl of medium supplemented with Wnt3a [purified as described ([Willert et al., 2003]; [Koval and Katanaev, 2011])] or CHIR99021 were added creating respective final concentrations of 2.5 μg/ml or 5 μM of each. In case of other signal transduction reporters, no additional stimulation was performed. Compound dilutions were prepared by serial dilution in DMSO and diluted with the amount of medium necessary to obtain their final concentrations indicated on the figures and tables and maintain concentration of DMSO of 0.5% in all assay points. After overnight incubation, the supernatant in each well was removed, and the luciferase activity was measured as described ([Dyer et al., 2000]; [Huber et al., 2021]; [Pellissier et al., 2021]). The culture medium was completely removed from all wells of the plate. Finally, the luciferase activity of the firefly and Renilla luciferases was detected sequentially in individual wells of a 384-well plate through injection of corresponding measurement solutions and immediate reading (400 ms integration time) in Infinite M Plex multifunctional plate reader with injection module.

HCC1395 cells = assay: in vitro
Procedure: as §2, §3, §4

[5] = Homo sapiens, MDA-MB-231, Table S2, read-out: MTT MDA-MB-231 IC50
[6] = Homo sapiens, MCF-10A, Table S2, read-out: MTT MCF10 IC50
[7] = Homo sapiens, HCC1395, HCC1395, stimulation with CHIR99021 (GSK3β inhibitor)
[8] = Homo sapiens, HCC1395, HCC1395, stimulation with CHIR99021 (GSK3β inhibitor), read-out: HCC1395 TopFlash IC50
[9] = HCC1395, stimulation with CHIR99021 (GSK3β inhibitor)

IC50 [4, 8]	Compound	IC50 (HCC1806 TNBC cell line; Homo sapiens, HCC1806)	MTT HCC1806 Comments (HCC1806 TNBC cell line)	IC50 [1, 5]	MTT MDA-MB-231 Comments ([1]; Table S2)	IC50 (BT-20 TNBC cell line; Homo sapiens, BT-20)	IC50 [2, 6]	IC50 ([3]; Homo sapiens, MDA-MB-468)	Emax [4, 7]	IC50 (HCC1395 TNBC cell line; Homo sapiens, HCC1395)	IC50 (in vitro; HCC1395 Cytotoxicity IC50)	MTT MDA-MB-231 plateau ([1]; Table S2)	fold improvement in the activity compared to 4a [4]	HCC1395 TopFlash Efficacy [4, 9]	also measured
1.33 ± 0.07 µM	COc1cc(CNc2ncnc3sccc23)ccc1Cl [Compound 4q, N-(4-chloro-3-methoxybenzyl)thieno[2,3-d]pyrimidin-4-amine]	> 10 µM	Inactive	> 10 µM	Inactive	0.96 µM	> 10 µM	0.57 µM	68.5 ± 2.9%	0.63 µM	> 50 µM	–	–	–	MTT MCF10 Comments ([2]; Table S2): Inactive
4.15 ± 0.91 µM	Fc1ccc(CNc2ncnc3sccc23)cc1 [Compound 4g, N-(4-fluorobenzyl)thieno[2,3-d]pyrimidin-4-amine]	2.37 µM	–	25.4 µM	–	1.63 µM	> 10 µM	1.46 µM	78.6 ± 29.8%	1.96 µM	> 50 µM	100	2 fold	–	MTT MCF10 Comments ([2]; Table S2): Inactive; GSK HCC1395 Renilla Comments (HCC1395 cells): Non-toxic
–	Clc1ccc(CNc2ncnc3ccccc23)cc1 [Compound 9e, N-(4-chloro)quinazolin-4-amine]	11.4 µM	–	26.9 µM	–	9.6 µM	> 10 µM	2.22 µM	–	0.92 µM	–	100	–	–	IC50 ([1]; Homo sapiens, MDA-MB-231, read-out: IC50, μM (MDA-MB-231)): > 10 µM; Emax ([4]; Homo sapiens, HCC1395, stimulation with CHIR99021 (GSK3β inhibitor)): 96 ± 5.7%; IC50 ([4]; Homo sapiens, HCC1395, stimulation with CHIR99021 (GSK3β inhibitor), read-out: HCC1395 TopFlash IC50): 2.18 ± 0.85 µM; IC50 (in vitro): > 50 µM
2.79 ± 0.67 µM	COc1ccccc1CNc1ncnc2sccc12 [Compound 4b, N-(2-methoxybenzyl)thieno[2,3-d]pyrimidin-4-amine]	> 50 µM	Inactive	> 50 µM	–	> 50 µM	33.2 µM	11.8 µM	40.7%	8.17 µM	> 50 µM	–	3 fold	40.7 ± 3.1%	IC50 ([1]; Homo sapiens, MDA-MB-231, Figure 3B heatmap, read-out: IC50, μM (MDA-MB-231)): > 10 µM; IC50 ([2]; Homo sapiens, MCF-10A, Figure 3B heatmap, read-out: IC50, μM (MCF10)): > 10 µM
4.61 ± 1.91 µM	Cc1ccc(CNc2ncnc3sccc23)cc1 [Compound 4o, N-(4-methylbenzyl)thieno[2,3-d]pyrimidin-4-amine]	2.71 µM	–	> 10 µM	Inactive	2.85 µM	6.18 µM	1.02 µM	72.7 ± 19.5%	1.35 µM	> 50 µM	–	2 fold	–	–
2.04 ± 2.55 µM	CN(CCc1ccccc1)c1ncnc2sccc12 [Compound 5j, N-methyl-N-phenethylthieno[2,3-d]pyrimidin-4-amine]	17.2 µM	–	4.71 µM	–	1.63 µM	1.53 µM	0.92 µM	100%	2.07 µM	> 50 µM	92.68	–	100 ± 0%	selectivity over the control cells (difference in IC50, MCF10a vs HCC1395) [2]: less than 3 fold
–	2-chloro-N-(2-methoxybenzyl)quinazolin-4-amine [Compound 8a]	–	–	–	–	–	–	–	–	–	–	53.88	–	–	MTT HCC1806 plateau (HCC1806 TNBC cell line): 100; IC50 (HCC1806 TNBC cell line): 22.7 µM; IC50 ([1]; Table S2, read-out: MTT MDA-MB-231 IC50): 2.65 µM; MTT BT-20 plateau (BT-20 TNBC cell line): 100; IC50 (BT-20 TNBC cell line): 2.96 µM; selectivity over the control cells (difference in IC50, MCF10a vs HCC1395) [2]: less than 3 fold; MTT MCF10 plateau ([2]; Table S2): 100; IC50 ([2]; Table S2, read-out: MTT MCF10 IC50): 10.5 µM; IC50 [3]: 3.19 µM; MTT MDA-MB-468 plateau [3]: 69.23; TopFlash activity in words ([4]; HCC1395, CHIR99021): no longer active; GSK HCC1395 plateau ([4]; Table S2): 100; IC50 ([4]; Table S2, TopFlash, GSK3β inhibitor stimulation, read-out: GSK HCC1395 IC50): 42.8 µM; MTT HCC1395 plateau (HCC1395 TNBC cell line): 100; IC50 (HCC1395 TNBC cell line): 7.83 µM; IC50 (HCC1395 cells; read-out: HCC1395 Cytotoxicity IC50, Renilla luciferase, HCC1395): > 100 µM

Compound	IC50 [4, 8]	IC50 (HCC1806 TNBC cell line; Homo sapiens, HCC1806)	MTT HCC1806 Comments (HCC1806 TNBC cell line)	IC50 [1, 5]	MTT MDA-MB-231 Comments ([1]; Table S2)	IC50 (BT-20 TNBC cell line; Homo sapiens, BT-20)	IC50 [2, 6]	IC50 ([3]; Homo sapiens, MDA-MB-468)	Emax [4, 7]	IC50 (HCC1395 TNBC cell line; Homo sapiens, HCC1395)	IC50 (in vitro; HCC1395 Cytotoxicity IC50)	MTT MDA-MB-231 plateau ([1]; Table S2)	fold improvement in the activity compared to 4a [4]	HCC1395 TopFlash Efficacy [4, 9]	also measured
COc1ccc(CNc2ncnc3ccccc23)cc1 [Compound 9c, N-(4-methoxybenzyl)quinazolin-4-amine]	4.76 ± 0.23 µM	> 10 µM	Inactive	> 10 µM	Inactive	3.81 µM	7.94 µM	0.44 µM	81.5%	1.17 µM	–	–	–	81.5 ± 10.61%	IC50 (in vitro): > 50 µM
